Activity calls are given as the source filed them. The calls are words filed in the database; no cut-off is given here.

The target in experiment [1] is T1, Lethal(3)malignant brain tumor-like protein 3 (Homo sapiens, UniProt Q96JM7).
T1 sequence (Q96JM7 whole entry): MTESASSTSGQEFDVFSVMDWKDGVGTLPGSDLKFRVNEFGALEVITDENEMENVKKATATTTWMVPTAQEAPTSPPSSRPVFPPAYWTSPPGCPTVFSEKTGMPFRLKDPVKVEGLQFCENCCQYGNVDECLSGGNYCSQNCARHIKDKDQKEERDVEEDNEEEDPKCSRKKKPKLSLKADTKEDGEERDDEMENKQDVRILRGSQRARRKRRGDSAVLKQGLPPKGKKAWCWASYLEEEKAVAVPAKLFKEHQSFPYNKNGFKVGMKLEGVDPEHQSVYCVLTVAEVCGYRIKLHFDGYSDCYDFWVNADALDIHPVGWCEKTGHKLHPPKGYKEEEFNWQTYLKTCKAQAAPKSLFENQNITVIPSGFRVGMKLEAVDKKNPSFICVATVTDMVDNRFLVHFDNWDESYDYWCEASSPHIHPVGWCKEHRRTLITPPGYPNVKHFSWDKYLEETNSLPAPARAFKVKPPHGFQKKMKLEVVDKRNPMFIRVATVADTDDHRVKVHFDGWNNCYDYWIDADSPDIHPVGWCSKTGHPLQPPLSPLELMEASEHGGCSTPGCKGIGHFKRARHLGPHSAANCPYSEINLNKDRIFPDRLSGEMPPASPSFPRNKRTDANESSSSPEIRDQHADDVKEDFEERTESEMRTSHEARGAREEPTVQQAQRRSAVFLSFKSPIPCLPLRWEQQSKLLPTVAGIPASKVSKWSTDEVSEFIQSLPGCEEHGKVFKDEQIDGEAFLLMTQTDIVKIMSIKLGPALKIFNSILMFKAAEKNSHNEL
Put plainly: Antagonist activity at His-tagged L3MBTL3 (unknown origin) assessed as inhibition of L3MBTL3/biotinylated H4K20Me2 peptide interaction after 30 mins by AlphaScreen assay. Background: Alpha assays give light when donor and acceptor beads are brought close together.

Experiment [2] deals with T2, Scm-like with four MBT domains protein 1 (Homo sapiens, UniProt Q9UHJ3).
T2 sequence (Q9UHJ3 whole entry): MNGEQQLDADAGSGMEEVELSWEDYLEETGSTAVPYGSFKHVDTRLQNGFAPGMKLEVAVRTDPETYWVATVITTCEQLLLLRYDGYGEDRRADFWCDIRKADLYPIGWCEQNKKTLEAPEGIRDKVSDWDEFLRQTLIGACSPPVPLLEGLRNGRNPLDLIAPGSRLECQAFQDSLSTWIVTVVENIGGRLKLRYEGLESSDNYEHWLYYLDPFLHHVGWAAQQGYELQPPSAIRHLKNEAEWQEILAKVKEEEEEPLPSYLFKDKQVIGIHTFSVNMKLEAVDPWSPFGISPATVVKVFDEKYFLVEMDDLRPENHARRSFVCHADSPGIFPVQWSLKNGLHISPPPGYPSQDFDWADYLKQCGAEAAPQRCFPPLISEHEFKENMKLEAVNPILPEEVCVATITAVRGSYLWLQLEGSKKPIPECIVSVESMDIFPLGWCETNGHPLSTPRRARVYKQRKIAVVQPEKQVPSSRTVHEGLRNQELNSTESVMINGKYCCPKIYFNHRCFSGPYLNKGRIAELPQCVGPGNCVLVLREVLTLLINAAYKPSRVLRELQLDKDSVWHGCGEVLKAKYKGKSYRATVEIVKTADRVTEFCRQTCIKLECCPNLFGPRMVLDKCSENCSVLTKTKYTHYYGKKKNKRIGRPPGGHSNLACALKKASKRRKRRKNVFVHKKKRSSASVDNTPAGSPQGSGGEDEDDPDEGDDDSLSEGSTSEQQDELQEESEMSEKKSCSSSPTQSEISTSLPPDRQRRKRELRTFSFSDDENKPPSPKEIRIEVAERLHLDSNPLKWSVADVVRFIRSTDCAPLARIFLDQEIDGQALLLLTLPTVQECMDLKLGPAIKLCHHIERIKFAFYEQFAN
Put plainly: Antagonist activity at SFMBT1 (unknown origin) assessed as inhibition of SFMBT1/biotinylated H3K9Me1 peptide interaction after 30 mins by AlphaScreen assay.

The target of experiment [3] is T3, Chromobox protein homolog 7 (Homo sapiens, UniProt O95931).
T3 sequence (O95931 whole entry): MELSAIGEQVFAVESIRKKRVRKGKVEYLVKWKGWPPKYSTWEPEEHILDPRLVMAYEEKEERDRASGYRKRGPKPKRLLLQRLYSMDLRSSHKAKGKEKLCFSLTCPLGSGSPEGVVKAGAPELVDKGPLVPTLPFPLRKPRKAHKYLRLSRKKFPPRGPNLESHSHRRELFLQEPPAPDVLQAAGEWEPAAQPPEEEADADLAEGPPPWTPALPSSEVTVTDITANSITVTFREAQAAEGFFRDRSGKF
Put plainly: Antagonist activity at Flag-tagged CBX7 (unknown origin) assessed as inhibition of CBX7/biotinylated H3K9Me3 peptide interaction after 30 mins by AlphaScreen assay.

For experiment [4], the target named is T4, Lethal(3)malignant brain tumor-like protein 3 (Homo sapiens) (UniProt Q96JM7).
T4 sequence (whole entry): T1 sequence (Q96JM7 whole entry)
Put plainly: Antagonist activity at His-tagged L3MBTL3 (unknown origin) assessed as inhibition of L3MBTL3/biotinylated H4K20Me2 peptide interaction at 30 uM after 30 mins by AlphaScreen assay.

The target in experiment [5] is T5, MBT domain-containing protein 1 (Homo sapiens, UniProt Q05BQ5). Briefly: Antagonist activity at MBTD1 (unknown origin) assessed as inhibition of MBTD1/biotinylated H4K20Me1 peptide interaction at 30 uM after 30 mins by AlphaScreen assay.
T5 sequence (Q05BQ5 whole entry, the tested form may be a part): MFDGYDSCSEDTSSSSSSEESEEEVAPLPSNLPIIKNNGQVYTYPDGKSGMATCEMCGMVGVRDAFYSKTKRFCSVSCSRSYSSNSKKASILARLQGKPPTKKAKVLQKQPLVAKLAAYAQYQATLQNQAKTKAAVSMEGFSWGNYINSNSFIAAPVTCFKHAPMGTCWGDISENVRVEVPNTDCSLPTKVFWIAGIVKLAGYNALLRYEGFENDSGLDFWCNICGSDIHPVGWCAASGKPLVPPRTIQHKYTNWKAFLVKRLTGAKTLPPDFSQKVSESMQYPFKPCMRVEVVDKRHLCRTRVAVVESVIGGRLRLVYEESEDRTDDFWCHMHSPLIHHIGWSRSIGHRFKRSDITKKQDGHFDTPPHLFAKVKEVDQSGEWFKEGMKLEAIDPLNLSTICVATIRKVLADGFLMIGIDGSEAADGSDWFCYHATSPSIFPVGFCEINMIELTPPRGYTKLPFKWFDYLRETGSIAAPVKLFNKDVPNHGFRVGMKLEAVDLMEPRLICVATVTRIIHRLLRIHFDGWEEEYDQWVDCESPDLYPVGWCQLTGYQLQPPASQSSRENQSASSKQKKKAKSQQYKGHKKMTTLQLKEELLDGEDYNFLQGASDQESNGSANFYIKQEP
The target of experiment [6] is T5, MBT domain-containing protein 1. Put plainly: Antagonist activity at MBTD1 (unknown origin) assessed as inhibition of MBTD1/biotinylated H4K20Me1 peptide interaction after 30 mins by AlphaScreen assay.

As for `O=C(c1cccc(Br)c1)N1CCN(C2CCCC2)CC1`, the IC50 in experiment [1], in experiment [2], in experiment [3] and in experiment [6] was above 30 µM in each case. Besides, the inhibition – broadly, the share of the control response that was lost under treatment – in experiment [4] worked out at 5%. The inhibition result in experiment [5] was “inactive”.

As for `O=C(c1cccc(Br)c1)N1CCC(N2CCCC2)C1` (configuration not stated), the IC50 in experiment [1], in experiment [2], in experiment [3] and in experiment [6] was above 30 µM in each case. Besides, the inhibition in experiment [4] stood at 40%; in experiment [5], 13%.

For `C[N+]1(C2CCN(C(=O)c3cccc(Br)c3)CC2)CCCC1`, the IC50 in experiment [1], in experiment [2], in experiment [3] and in experiment [6] was above 30 µM throughout. Also, the inhibition came out at 13% in experiment [4] and 3% in experiment [5].

Consider `O=C(O)c1cccc(C(=O)N2CCC(N3CCCC3)CC2)c1`, for which the IC50 (commonly the point on the concentration scale where inhibition reaches its midpoint) in experiment [1] is 6.9 µM; in experiment [2] it was above 30 µM; in experiment [3], above 30 µM; in experiment [6], above 30 µM. Also, the inhibition in experiment [5] is 4%.

With `O=C(c1cccc(Br)c1)N1CCC(C2CCCN2)CC1` (configuration not stated), the IC50 in experiment [2] was above 30 µM; in experiment [3], above 30 µM; in experiment [6] it was 9.2 µM. The inhibition in experiment [4] is 52%.

Regarding `Brc1cccc(CN2CCC(N3CCCC3)CC2)c1`, the IC50 was 13.3 µM in experiment [1], above 30 µM in experiment [2], above 30 µM in experiment [3] and 18.6 µM in experiment [6].

Turning to `CN1CCCC1C1CCN(C(=O)c2cccc(Br)c2)CC1` (configuration not stated), the IC50 is 21 µM in experiment [1], above 30 µM in experiment [2], above 30 µM in experiment [3] and above 30 µM in experiment [6]. Besides, the inhibition in experiment [5] is 32%.

As for `O=S(=O)(c1cccc(Br)c1)N1CCC(N2CCCC2)CC1`, the IC50 in experiment [1] is 3.7 µM; in experiment [2] it was above 30 µM; in experiment [3] it was above 30 µM; in experiment [6], 21.9 µM.

As to `CC(c1cccc(Br)c1)N1CCC(N2CCCC2)CC1` (racemic), the IC50 was 16 µM in experiment [1], above 30 µM in experiment [2], above 30 µM in experiment [3] and 9 µM in experiment [6].

For `O=C(c1cccc(Br)c1)N1CCC(N2CCCC2)CC1`, the IC50 in experiment [1] was 3.2 µM; in experiment [2], above 30 µM; in experiment [3] it was above 30 µM; in experiment [6] it was above 30 µM. Further, in experiment [5], the inhibition was 44%.

Turning to `CNC1CCN(C(=O)c2cccc(Br)c2)CC1`, the IC50 in experiment [1], in experiment [2], in experiment [3] and in experiment [6] was above 30 µM each time. The inhibition was 9% in experiment [4] and 3% in experiment [5].

Turning to `CN(C)C1CCN(C(=O)c2cccc(Br)c2)CC1`, the IC50 in experiment [1], in experiment [2], in experiment [3] and in experiment [6] was above 30 µM in each case. Also, the values for the inhibition in experiment [4] and in experiment [5] were 18% and 1%, respectively.

In the case of `O=C(c1cccc(Br)c1)N1CCC(N2CCCCC2)CC1`, the IC50 in experiment [1] is above 30 µM; in experiment [2], above 30 µM; in experiment [3], above 30 µM; in experiment [6], 29.7 µM. In experiment [4], the inhibition was 21%.

With `CC1CCCN1C1CCN(C(=O)c2cccc(Br)c2)CC1` (configuration not stated), the IC50 in experiment [1], in experiment [2], in experiment [3] and in experiment [6] was above 30 µM throughout. Further, the inhibition in experiment [4] came out at 25%; in experiment [5] it was 16%.

Consider `O=C(c1cccc(Br)c1)N1CCC(N2CCC2)CC1`, for which the IC50 was 23.8 µM in experiment [1], above 30 µM in experiment [2], above 30 µM in experiment [3] and above 30 µM in experiment [6]. In addition, the inhibition in experiment [5] was determined as 20%.

Source of the values: ChEMBL document CHEMBL3217594, “Structureactivity relationships of methyl-lysine reader antagonists” (Medchemcomm, 2012).
